IC50 and activation data for 67 compounds are collected here from US20250066389A1, “HETEROCYCLIC AMIDES AND METHODS OF USING THE SAME” (Rgenta Therapeutics, Inc., priority 2021, published 2025).

Structures can show the parent of a compound that is named as a salt. Bounds are passed on as bounds.

The subject of the assay is PMS1. As to the kind of experiment: Mini-Gene Reporter Assay—PMS1 (firefly luciferase mini-gene reporter transiently transfected into HEK293 cells). To be noted: Homo sapiens, mini-gene firefly luciferase reporter in HEK293 cells; for activation at 5 µM: read-out: PMS1 % Effect at 5 uM. In kind it is cell-based. Summed up:
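HEK293 cells transiently transfected with a mini-gene construct (skipped exon with flanking introns/exons fused to firefly luciferase, pcDNA3.1) are incubated with compounds in duplicate. Exon inclusion raises luminescence; EC50 fitted by Levenberg-Marquardt; effect also scored at 5 μM.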

For orientation: IC50 means the concentration at which inhibition is half-maximal. `CCOc1cc2nc(C)cn2cc1C(=O)Nc1ccc(N2CCNCCC2C)nn1` (stereo not shown) [Compound 264] had an IC50 of 1 to 10 µM.

Regarding `CCOc1cc2nc(C)cn2cc1C(=O)Nc1ccc(N2CCC3(CCCNC3)C2)nn1` (stereo not shown) [Compound 265], the IC50 is 1 to 10 µM.

The compound `CCOc1cc2nc(C)cn2cc1C(=O)Nc1ccc(N2CCC(CNC)C2)nn1` (stereo not shown) [Compound 266] gave an IC50 of less than 1 µM.

On to `CCOc1cc2nc(C)cn2cc1C(=O)Nc1ccc(N2CC3(CCNC3)C2)nn1` [Compound 267], for which the IC50 was 1 to 10 µM.

For `CCOc1cc2nc(C)cn2cc1C(=O)Nc1ccc(N2CCNC(C)C2C)nn1` (stereo not shown) [Compound 268], the 50% inhibitory concentration (IC50) lay in the range of 1 to 10 µM.

For `CCNC1CCN(c2ccc(NC(=O)c3cn4cc(C)nc4cc3OCC)nn2)CC1` [Compound 269], the half-maximal inhibitory concentration (IC50) was 1 to 10 µM.

`CCOc1cc2nc(C)cn2cc1C(=O)Nc1ccc(N2CCC(CNC)CC2)nn1` [Compound 270] gave an IC50 of 1 to 10 µM.

With `CCOc1cc2nc(C)cn2cc1C(=O)Nc1ccc(N2CCC3(CNC3)C2)nn1` [Compound 271], the IC50 lay within 1 to 10 µM.

The compound `CCOc1cc2nc(C)cn2cc1C(=O)Nc1ccc(N2CCN(C3CNC3)CC2)nn1` [Compound 272] displayed a half-inhibitory concentration (IC50) of 1 to 10 µM.

For `CCOc1cc2nc(C)cn2cc1C(=O)Nc1ccc(N2CCC3(CCNCC3)C2)nn1` [Compound 273], the 50% inhibitory concentration (IC50) lay in the range of 1 to 10 µM.

In turn, `CCOc1cc2nc(C)cn2cc1C(=O)Nc1ccc(N2CCN(C3CCNC3)CC2)nn1` (stereo not shown) [Compound 274] displayed an IC50 of 1 to 10 µM.

`CCOc1cc2nc(C)cn2cc1C(=O)Nc1ccc(N2CCC3(CCNC3)CC2)nn1` [Compound 275] returned an IC50 of 1 to 10 µM.

On to `CCOc1cc2nc(C)cn2cc1C(=O)Nc1ccc(N2CCN[C@@H](C(C)C)C2)nn1` [Compound 276], for which the IC50 is less than 1 µM.

With `CCOc1cc2nc(C)cn2cc1C(=O)Nc1ccc(N2CC3(CNC3)C2)nn1` [Compound 277], the 50% inhibitory concentration (IC50) lay within 1 to 10 µM.

`CCOc1cc2nc(C)cn2cc1C(=O)Nc1ccc(N2CCCC(CNC)C2)nn1` (stereo not shown) [Compound 278] showed an IC50 of 1 to 10 µM.

`CCOc1cc2nc(C)cn2cc1C(=O)Nc1ccc(N2CCNC(CC)C2)nn1` (stereo not shown) [Compound 279] came in with an IC50 of less than 1 µM.

Regarding `CCOc1cc2nc(C)cn2cc1C(=O)Nc1ccc(N2CCC(NC)C2)nn1` (stereo not shown) [Compound 280], the IC50 is less than 1 µM.

Take `CCOc1cc2nc(C)cn2cc1C(=O)Nc1ccc(N2CC(C)NCC2C)nn1` (stereo not shown) [Compound 281]: the half-inhibitory concentration (IC50) was in the range of 1 to 10 µM.

Compound `CCOc1cc2nc(C)cn2cc1C(=O)Nc1ccc(N2C[C@@H](C)N[C@@H](C)C2)nn1` [Compound 282] gave a half-inhibitory concentration (IC50) of less than 1 µM.

The compound `CCOc1cc2nc(C)cn2cc1C(=O)Nc1ccc(N2CCCC(NC)C2)nn1` (stereo not shown) [Compound 283] displayed a half-maximal inhibitory concentration (IC50) of 1 to 10 µM.

Compound `CCOc1cc2nc(C)cn2cc1C(=O)Nc1ccc(N2CCC3(CCNCC3)CC2)nn1` [Compound 284] displayed an IC50 of 1 to 10 µM.

`CCOc1cc2nc(C)cn2cc1C(=O)Nc1ccc(N2C[C@@H]3C[C@H]2CN3)nn1` [Compound 285] registered a concentration for half-maximal inhibition (IC50) of 1 to 10 µM.

The compound `CCOc1cc2nc(C)cn2cc1C(=O)Nc1ccc(N2CCC3(CCNC3)C2)nn1` (stereo not shown) [Compound 286] returned a concentration for half-maximal inhibition (IC50) of 1 to 10 µM.

Consider `CCOc1cc2nc(C)cn2cc1C(=O)Nc1ccc(N2CCC3(CC2)CNC3)nn1` [Compound 287], for which the IC50 fell in the range of 1 to 10 µM.

`CCOc1cc2nc(C)cn2cc1C(=O)Nc1ccc(N(C)C2CCNC2)nn1` (stereo not shown) [Compound 288] yielded a half-inhibitory concentration (IC50) of 1 to 10 µM.

In the case of `CCOc1cc2nc(C)cn2cc1C(=O)Nc1ccc(N2CC3(CCNCC3)C2)nn1` [Compound 289], the half-inhibitory concentration (IC50) was in the range of 1 to 10 µM.

For `CCOc1cc2nc(C)cn2cc1C(=O)Nc1ccc(N2CCNCC2)nn1` [Compound 290], the IC50 was less than 1 µM.

Consider `CCOc1cc2nc(C)cn2cc1C(=O)Nc1ccc(N2CCNCC2C)nn1` (stereo not shown) [Compound 291], for which the concentration for half-maximal inhibition (IC50) is 1 to 10 µM.

The compound `CCOc1cc2nc(C)cn2cc1C(=O)Nc1ccc(N(C)C2CCNCC2)nn1` [Compound 292] gave an IC50 of 1 to 10 µM.

Compound `CCOc1cc2nc(C)cn2cc1C(=O)Nc1ccc(N2CC(NC)C2)nn1` [Compound 293] yielded an IC50 of 1 to 10 µM.

For `CCOc1cc2nc(C)cn2cc1C(=O)Nc1ccc(N2CCCNCC2)nn1` [Compound 294], the IC50 is less than 1 µM.

`CCOc1cc2nc(C)cn2cc1C(=O)Nc1ccc(N2CCNC(C)C2)nn1` (stereo not shown) [Compound 295] registered an IC50 of less than 1 µM.

For the compound `CCOc1cc2nc(C)cn2cc1C(=O)Nc1ccc(N2CC3(CC(NC)CO3)C2)nn1` (stereo not shown) [Compound 296], the IC50 is 1 to 10 µM.

`CCNC1COC2(C1)CN(c1ccc(NC(=O)c3cn4cc(C)nc4cc3OCC)nn1)C2` (stereo not shown) [Compound 297]: the IC50 fell in the range of 1 to 10 µM.

Take `CCOc1cc2nc(C)cn2cc1C(=O)Nc1ccc(N2CC3(CC(NC(C)C)CO3)C2)nn1` (stereo not shown) [Compound 298]: the IC50 was in the range of 1 to 10 µM.

`CCOc1cc2nn(C)cc2cc1C(=O)Nc1ccc(N2CCN(C)[C@@H](C)C2)nn1` [Compound 299, (S)—N-(6-(3,4-dimethylpiperazin-1-yl)pyridazin-3-yl)-6-ethoxy-2-methyl-2H-indazole-5-carboxamide hydrochloride] came in with an IC50 of 1 to 10 µM.

As for `CCOc1cc2nn(C)cc2cc1C(=O)Nc1ccc(N2CCN(CC)[C@@H](C)C2)nn1` [Compound 300, (S)-6-ethoxy-N-(6-(4-ethyl-3-methylpiperazin-1-yl)pyridazin-3-yl)-2-methyl-2H-indazole-5-carboxamide hydrochloride], the IC50 fell in the range of 1 to 10 µM.

`CCOc1cc2nn(C)cc2cc1C(=O)Nc1ccc(N2CCN(C3CCOCC3)[C@@H](C)C2)nn1` [Compound 301, 6-ethoxy-2-methyl-N-{6-[(3S)-3-methyl-4-(oxan-4-yl)piperazin-1-yl]pyridazin-3-yl}-2H-indazole-5-carboxamide] gave an IC50 of 1 to 10 µM.

As for `COc1cc2nc(C)cn2cc1C(=O)Nc1cc(C)c(N2CCN[C@@H](C)C2)nn1` [Compound 302, 7-methoxy-2-methyl-N-{5-methyl-6-[(3S)-3-methylpiperazin-1-yl]pyridazin-3-yl}imidazo[1,2-a]pyridine-6-carboxamide], the 50% inhibitory concentration (IC50) is less than 1 µM.

Take `CCOc1cc2nn(C)cc2cc1C(=O)Nc1cnc(N2CCC3CCCNC3C2)cn1` (stereo not shown) [Compound 303]: the activation at 5 µM is 50 to 75%.

Regarding `CCOc1cc2nn(C)cc2cc1C(=O)Nc1cnc(NCC2CC3CCC2N3)cn1` (stereo not shown) [Compound 304], the activation at 5 µM is greater than 75%.

For `CCOc1cc2nn(C)cc2cc1C(=O)Nc1cnc(N2CCNCC3(CC3)C2)cn1` [Compound 305], the activation at 5 µM was greater than 75%.

Regarding `CCOc1cc2nn(C)cc2cc1C(=O)Nc1cnc(N[C@@H]2CNC[C@@H](OC)C2)cn1` [Compound 306], the activation at 5 µM was less than 50%.

In the case of `CCOc1cc2nn(C)cc2cc1C(=O)Nc1cnc(N[C@@H]2CNC[C@@H](F)C2)cn1` [Compound 307], the activation at 5 µM lay in the range of 50 to 75%.

With `CCOc1cc2nn(C)cc2cc1C(=O)Nc1cnc(NC[C@H]2C[C@@](F)(CN)C2)cn1` [Compound 308], the activation at 5 µM is less than 50%.

`CCOc1cc2nn(C)cc2cc1C(=O)Nc1cnc(N2CC(O)(C3CCCN3)C2)cn1` (stereo not shown) [Compound 309]: the activation at 5 µM is greater than 75%.

For `CCOc1cc2nn(C)cc2cc1C(=O)Nc1cnc(NCCC2CC3CCC(C2)N3)cn1` (stereo not shown) [Compound 310], the activation at 5 µM is less than 50%.

`CCOc1cc2nn(C)cc2cc1C(=O)Nc1cnc(NC(C)CC2CC3CCC(C2)N3)cn1` (stereo not shown) [Compound 311]: the activation at 5 µM is less than 50%.

As for `CCOc1cc2nn(C)cc2cc1C(=O)Nc1cnc(NC[C@H]2CNCC(C)(C)O2)cn1` [Compound 312], the activation at 5 µM was less than 50%.

As for `CCOc1cc2nn(C)cc2cc1C(=O)Nc1cnc(NC2CNCC3(CCC3)C2)cn1` (stereo not shown) [Compound 313], the activation at 5 µM is less than 50%.

As for `CCOc1cc2nn(C)cc2cc1C(=O)Nc1cnc(N2C3CCCC2CNC3)cn1` [Compound 314], the activation at 5 µM is less than 50%.

Regarding `CCOc1cc2nn(C)cc2cc1C(=O)Nc1cnc(NC2CCC(C)NC2)cn1` (stereo not shown) [Compound 315], the activation at 5 µM is less than 50%.

Take `CCOc1cc2nn(C)cc2cc1C(=O)Nc1cnc(N2CC(NC)C3(CC3)C2)cn1` (stereo not shown) [Compound 316]: the activation at 5 µM is 50 to 75%.

Turning to `CCOc1cc2nn(C)cc2cc1C(=O)Nc1cnc(N2CCCC(NC)CC2)cn1` (stereo not shown) [Compound 317], the activation at 5 µM is less than 50%.

In the case of `CCOc1cc2nn(C)cc2cc1C(=O)Nc1cnc(NCC2CNC(C)C2)cn1` (stereo not shown) [Compound 318], the activation at 5 µM is less than 50%.

Regarding `CCOc1cc2nn(C)cc2cc1C(=O)Nc1cnc(NC2CCCNC2C)cn1` (stereo not shown) [Compound 319], the activation at 5 µM was less than 50%.

For the compound `CCOc1cc2nn(C)cc2cc1C(=O)Nc1cnc(N2CC34CCCC3(CNC4)C2)cn1` (stereo not shown) [Compound 320], the activation at 5 µM was less than 50%.

For `CCOc1cc2nn(C)cc2cc1C(=O)Nc1cnc(N2CC(N)CC2C)cn1` (stereo not shown) [Compound 321], the activation at 5 µM was greater than 75%.

As to `CCOc1cc2nn(C)cc2cc1C(=O)Nc1cnc(NCC2C3CNCC32)cn1` (stereo not shown) [Compound 322], the activation at 5 µM is less than 50%.

`CCOc1cc2nn(C)cc2cc1C(=O)Nc1cnc(NC2CNCC(C)C2)cn1` (stereo not shown) [Compound 323]: the activation at 5 µM was less than 50%.

On to `CCOc1cc2nn(C)cc2cc1C(=O)Nc1cnc(NC2C=CCNC2)cn1` (stereo not shown) [Compound 324], for which the activation at 5 µM is less than 50%.

Take `CCOc1cc2nn(C)cc2cc1C(=O)Nc1cnc(N2[C@H](CN)C[C@@H]3CCC[C@@H]32)cn1` [Compound 325]: the activation at 5 µM is less than 50%.

Take `CCOc1cc2nn(C)cc2cc1C(=O)Nc1cnc(N2CC(N)C(C)(C)C2)cn1` (stereo not shown) [Compound 326]: the activation at 5 µM is greater than 75%.

For the compound `CCOc1cc2nn(C)cc2cc1C(=O)Nc1cnc(NCC[C@@H]2C[C@H](OC)CN2)cn1` [Compound 327], the activation at 5 µM is less than 50%.

Take `CCOc1cc2nn(C)cc2cc1C(=O)Nc1cnc(NC(C)CNC)cn1` (stereo not shown) [Compound 328]: the activation at 5 µM was less than 50%.

Take `CCOc1cc2nn(C)cc2cc1C(=O)Nc1cnc(NCC2CCC3(CCNCC3)CC2)cn1` [Compound 329]: the activation at 5 µM is less than 50%.

For `CCOc1cc2nn(C)cc2cc1C(=O)Nc1cnc(N2CC(CO)C3(CNC3)C2)cn1` (stereo not shown) [Compound 330], the activation at 5 µM was less than 50%.
